Laboratory results published in US7666890B2, “Synthesis and herbicidal activity of 1- (2-substituted benzo[d]thiazol-5-yl)-1H-1,2,4-triazol-5(4H)-one derivatives” (Huazhong Normal University, priority 2007, dated 2010).

How the values were obtained:
Assay in all cases: Test of herbicidal activities (greenhouse pot method)
Type in all cases: in vivo
Settings in all cases: single dose 300 g ai./h, treated before/after germination, 15 days later, greenhouse pot
[1] = test system: Brassica juncea
Outline: (§1)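 Greenhouse pot test at a single dose of 300 g ai./h, applied by spray tower pre- or post-emergence, with grasses at the 2-leaf stage, in triplicate with a blank control. Plants were kept at 15–30 °C. Inhibition was graded after 15 days: A 90–100%, B 80–<90%, C 60–<80%, D 50–<60%, E <50%.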

[2] = test system: Amaranthus retroflexus
Outline: as §1

[3] = test system: Setaria viridis
Outline: as §1

[4] = test system: Echinochloa crusgalli
Outline: as §1

[5] = test system: Digiatria sanguinalis
Outline: as §1

[6] = test system: Chenopodium album
Outline: as §1

Structure (SMILES)	Herbicidal activity Brassica juncea (inhibition level) [1]	Herbicidal activity Amaranthus retroflexus (inhibition level) [2]	Herbicidal activity Setaria viridis (inhibition level) [3]	Herbicidal activity Echinochloa crusgalli (inhibition level) [4]	Herbicidal activity Digiatria sanguinalis (inhibition level) [5]	Herbicidal activity Chenopodium album (inhibition level) [6]
CCS(=O)(=O)c1nc2cc(-n3nc(C)n(C(F)F)c3=O)c(F)cc2s1 [Compound 56]	A (90 ≦ A ≦ 100%)	A (90 ≦ A ≦ 100%)	D (50 ≦ D < 60%)	B (80 ≦ B < 90%)	D (50 ≦ D < 60%)	C (60 ≦ C < 80%)
CCCCCCS(=O)(=O)c1nc2cc(-n3nc(C)n(C(F)F)c3=O)c(Cl)cc2s1 [Compound 57]	B (80 ≦ B < 90%)	A (90 ≦ A ≦ 100%)	D (50 ≦ D < 60%)	D (50 ≦ D < 60%)	A (90 ≦ A ≦ 100%)	C (60 ≦ C < 80%)
CCS(=O)(=O)c1nc2cc(-n3nc(C)n(C(F)F)c3=O)c(Cl)cc2s1 [Compound 58]	B (80 ≦ B < 90%)	A (90 ≦ A ≦ 100%)	C (60 ≦ C < 80%)	B (80 ≦ B < 90%)	A (90 ≦ A ≦ 100%)	A (90 ≦ A ≦ 100%)
CCOC(=O)C(C)S(=O)(=O)c1nc2cc(-n3nc(C)n(C(F)F)c3=O)c(Br)cc2s1 (stereo not drawn) [Compound 59]	A (90 ≦ A ≦ 100%)	A (90 ≦ A ≦ 100%)	C (60 ≦ C < 80%)	D (50 ≦ D < 60%)	C (60 ≦ C < 80%)	B (80 ≦ B < 90%)
C=CCS(=O)(=O)c1nc2cc(-n3nc(C)n(C(F)F)c3=O)c(Br)cc2s1 [Compound 60]	A (90 ≦ A ≦ 100%)	A (90 ≦ A ≦ 100%)	C (60 ≦ C < 80%)	B (80 ≦ B < 90%)	A (90 ≦ A ≦ 100%)	B (80 ≦ B < 90%)
CCOC(=O)C(C)S(=O)(=O)c1nc2cc(-n3nc(C)n(C(F)F)c3=O)c(F)cc2s1 (stereo not drawn) [Compound 61]	A (90 ≦ A ≦ 100%)	A (90 ≦ A ≦ 100%)	C (60 ≦ C < 80%)	C (60 ≦ C < 80%)	A (90 ≦ A ≦ 100%)	B (80 ≦ B < 90%)
Cc1nn(-c2cc3nc(S(C)(=O)=O)sc3cc2F)c(=O)n1C(F)F [Compound 62]	D (50 ≦ D < 60%)	C (60 ≦ C < 80%)	A (90 ≦ A ≦ 100%)	A (90 ≦ A ≦ 100%)	B (80 ≦ B < 90%)	D (50 ≦ D < 60%)
CCCCS(=O)(=O)c1nc2cc(-n3nc(C)n(C(F)F)c3=O)c(F)cc2s1 [Compound 63]	B (80 ≦ B < 90%)	A (90 ≦ A ≦ 100%)	C (60 ≦ C < 80%)	B (80 ≦ B < 90%)	A (90 ≦ A ≦ 100%)	A (90 ≦ A ≦ 100%)
CCCS(=O)(=O)c1nc2cc(-n3nc(C)n(C(F)F)c3=O)c(F)cc2s1 [Compound 64]	D (50 ≦ D < 60%)	B (80 ≦ B < 90%)	B (80 ≦ B < 90%)	B (80 ≦ B < 90%)	A (90 ≦ A ≦ 100%)	B (80 ≦ B < 90%)
CCOC(=O)CS(=O)(=O)c1nc2cc(-n3nc(C)n(C(F)F)c3=O)c(F)cc2s1 [Compound 65]	A (90 ≦ A ≦ 100%)	A (90 ≦ A ≦ 100%)	B (80 ≦ B < 90%)	C (60 ≦ C < 80%)	B (80 ≦ B < 90%)	A (90 ≦ A ≦ 100%)
C=CCS(=O)(=O)c1nc2cc(-n3nc(C)n(C(F)F)c3=O)c(F)cc2s1 [Compound 66]	B (80 ≦ B < 90%)	B (80 ≦ B < 90%)	A (90 ≦ A ≦ 100%)	A (90 ≦ A ≦ 100%)	B (80 ≦ B < 90%)	B (80 ≦ B < 90%)
CCOC(=O)C(C)S(=O)(=O)c1nc2cc(-n3nc(C)n(C(F)F)c3=O)c(Cl)cc2s1 (stereo not drawn) [Compound 67]	B (80 ≦ B < 90%)	C (60 ≦ C < 80%)	B (80 ≦ B < 90%)	C (60 ≦ C < 80%)	A (90 ≦ A ≦ 100%)	B (80 ≦ B < 90%)
Cc1nn(-c2cc3nc(S(C)(=O)=O)sc3cc2Cl)c(=O)n1C(F)F [Compound 68]	B (80 ≦ B < 90%)	A (90 ≦ A ≦ 100%)	B (80 ≦ B < 90%)	A (90 ≦ A ≦ 100%)	B (80 ≦ B < 90%)	C (60 ≦ C < 80%)
CCCCS(=O)(=O)c1nc2cc(-n3nc(C)n(C(F)F)c3=O)c(Cl)cc2s1 [Compound 69]	B (80 ≦ B < 90%)	A (90 ≦ A ≦ 100%)	B (80 ≦ B < 90%)	A (90 ≦ A ≦ 100%)	B (80 ≦ B < 90%)	C (60 ≦ C < 80%)
CCOC(=O)CS(=O)(=O)c1nc2cc(-n3nc(C)n(C(F)F)c3=O)c(Cl)cc2s1 [Compound 70]	B (80 ≦ B < 90%)	B (80 ≦ B < 90%)	B (80 ≦ B < 90%)	B (80 ≦ B < 90%)	B (80 ≦ B < 90%)	B (80 ≦ B < 90%)
C=CCS(=O)(=O)c1nc2cc(-n3nc(C)n(C(F)F)c3=O)c(Cl)cc2s1 [Compound 71]	B (80 ≦ B < 90%)	C (60 ≦ C < 80%)	B (80 ≦ B < 90%)	C (60 ≦ C < 80%)	C (60 ≦ C < 80%)	B (80 ≦ B < 90%)
CCCS(=O)(=O)c1nc2cc(-n3nc(C)n(C(F)F)c3=O)c(Cl)cc2s1 [Compound 72]	B (80 ≦ B < 90%)	A (90 ≦ A ≦ 100%)	C (60 ≦ C < 80%)	A (90 ≦ A ≦ 100%)	B (80 ≦ B < 90%)	B (80 ≦ B < 90%)
Cc1nn(-c2cc3nc(SCc4cccs4)sc3cc2F)c(=O)n1C(F)F [Compound 73]	B (80 ≦ B < 90%)	A (90 ≦ A ≦ 100%)	B (80 ≦ B < 90%)	B (80 ≦ B < 90%)	A (90 ≦ A ≦ 100%)	A (90 ≦ A ≦ 100%)
Cc1nn(-c2cc3nc(SCn4cnc5ccccc5c4=O)sc3cc2F)c(=O)n1C(F)F [Compound 74]	B (80 ≦ B < 90%)	B (80 ≦ B < 90%)	A (90 ≦ A ≦ 100%)	A (90 ≦ A ≦ 100%)	B (80 ≦ B < 90%)	C (60 ≦ C < 80%)
COCCSc1nc2cc(-n3nc(C)n(C(F)F)c3=O)c(Cl)cc2s1 [Compound 76]	C (60 ≦ C < 80%)	A (90 ≦ A ≦ 100%)	B (80 ≦ B < 90%)	A (90 ≦ A ≦ 100%)	A (90 ≦ A ≦ 100%)	C (60 ≦ C < 80%)
CCOCCSc1nc2cc(-n3nc(C)n(C(F)F)c3=O)c(Cl)cc2s1 [Compound 78]	D (50 ≦ D < 60%)	A (90 ≦ A ≦ 100%)	A (90 ≦ A ≦ 100%)	C (60 ≦ C < 80%)	A (90 ≦ A ≦ 100%)	B (80 ≦ B < 90%)
